Measurements taken from patent publication US20090192071A1, “USE OF PHOTODYNAMIC THERAPY TO ENHANCE TREATMENT WITH IMMUNO-MODULATING AGENTS” (DUSA PHARMACEUTICALS, INC., priority 2004, published 2009).

Assays:
[1] = Combination therapy (ALA photodynamic therapy plus alefacept) in patients with psoriasis; format: in vivo, patient; conditions: for alleviation of symptoms: then reduced course of alefacept
[2] = test system: Basal Cell Carcinoma; assay: Combination therapy (ALA photodynamic therapy plus imiquimod) in a patient with Basal Cell Carcinoma; format: in vivo; conditions: Example 3: ALA topical cream, red light several hours later, then a course of imiquimod
Protocol: A patient with a Basal Cell Carcinoma is administered ALA in the form of a topical cream, which is applied to the affected areas. Several hours after administration of the ALA, the patient is exposed to an activating red light. Subsequently, the patient is administered a course of imiquimod therapy.

[3] = Combination therapy (ALA photodynamic therapy plus imiquimod) in a patient with warts; format: in vivo; conditions: Example 7: ALA topical cream, white light several hours later, then reduced course of imiquimod
Protocol: A patient with warts is administered ALA in the form of a topical cream, which is applied to the affected area. Several hours after administration of the ALA, the patient is exposed to white light. Subsequently, the patient is administered a reduced course of imiquimod therapy.

[4] = cited from earlier work

With `NCC(=O)CCC(=O)O` [ALA, 5-Amino-4-oxopentanoic acid] the improvement of psoriasis ([1]; Example 1: several patients, topical ALA, then Intense Pulsed Light (IPL), then alefacept as normally done) was “almost immediate improvements”, the “return of psoriatic symptoms after cessation of alefacept therapy” value ([1]; Example 2: topical ALA and blue light after a completed alefacept treatment cycle) was “less return of their psoriatic symptoms” and the alleviation of symptoms ([1]; Example 4: ALA topical cream, activating light several hours later) was “alleviation of symptoms soon after receiving the treatment”. For the same compound, the alleviation of symptoms ([1]; Example 5: ALA i.v. injection, 5 J/cm^2 of 417 nm blue light after one to three hours) was “alleviation of symptoms soon after receiving the treatment”, the alleviation of symptoms ([1]; Example 6: oral ALA, 10 J/cm^2 of 417 nm blue light after one to three hours) was “alleviation of symptoms soon after receiving the treatment” and the “resolution of the cancerous lesion” value [2] was “rapid and complete resolution of the cancerous lesion”. For the same compound, the alleviation of symptoms [3] was “alleviation of symptoms soon after receiving the treatment” and the solubility in water [4] was “water soluble”.
